pIC50, pKd: −log10 of the molar value.
How the values were obtained:
[1] = biological target: T1, PEDV Mpro (main protease, 3CL protease) (Porcine epidemic diarrhea virus CV777, UniProt P0C6Y4); experiment: FRET inhibition assay; type: biochemical
T1 construct: gene rep; mature nsp5 main protease cut from replicase polyprotein 1a/1ab; recombinant N-terminal GST fusion, GST tag removed with PreScission protease; expression as in Li et al., 2020; PDB 4XFQ only for docking
T1 sequence (P0C6Y4 2998-3299 limits assumed): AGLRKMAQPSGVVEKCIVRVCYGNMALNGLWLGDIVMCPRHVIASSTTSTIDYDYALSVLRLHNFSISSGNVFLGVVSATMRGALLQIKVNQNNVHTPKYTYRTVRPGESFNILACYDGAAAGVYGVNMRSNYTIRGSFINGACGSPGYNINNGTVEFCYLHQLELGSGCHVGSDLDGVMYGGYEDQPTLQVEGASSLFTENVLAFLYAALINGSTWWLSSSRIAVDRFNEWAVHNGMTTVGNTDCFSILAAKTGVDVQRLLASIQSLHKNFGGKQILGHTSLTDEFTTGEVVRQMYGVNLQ

[2] = biological target: T1, PEDV Mpro (main protease, 3CL protease); experiment: surface plasmon resonance (OpenSPR), Mpro immobilised; type: binding; settings: read-out: KD (affinity constant)

Compound `COc1c(O)cc(O)c2c(=O)cc(-c3ccccc3)oc12` [wogonin] has a pIC50 [1] of 4.71 and a pKd [2] of 4.80.
